Reference: the supplement of paper PMC5662764
± gives the standard deviation of the averaged measurements.

What was measured:
Assay in all cases: normalised growth rate inhibition (GR value) relative to DMSO control (GR (1 = untreated growth, 0 = cytostasis, <0 = cytotoxic)); higher = less growth inhibition
Conditions in all cases: 72 h
BT20 = tested on: BT20
Protocol: (§1)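 Breast cancer cell lines (BT-20, Hs 578T, MCF 10A, MCF7, MDA-MB-231, SK-BR-3) were plated in 384-well plates and treated 24 h later with drugs at six concentrations (0.04-10 µM). Viable cells were counted by Hoechst/dead-cell-stain imaging at 0 and 72 h. Counts were normalised to DMSO controls on the same plate to give the relative cell count and the growth-rate inhibition (GR) value; technical plate triplicates were averaged for each biological replicate.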

SKBR3 = tested on: SKBR3
Protocol: as §1

MCF7 = tested on: MCF7
Protocol: as §1

MDAMB231 = tested on: MDAMB231
Protocol: as §1

HS578T = tested on: HS578T
Protocol: as §1

MCF10A = tested on: MCF10A
Protocol: as §1

SMILES	normalised growth rate inhibition (BT20; 0.04 µM)	normalised growth rate inhibition (BT20; 0.12 µM)	normalised growth rate inhibition (BT20; 0.37 µM)	normalised growth rate inhibition (BT20; 1.11 µM)	normalised growth rate inhibition (BT20; 3.33 µM)	normalised growth rate inhibition (BT20; 10 µM)	normalised growth rate inhibition (SKBR3; 0.04 µM)	normalised growth rate inhibition (SKBR3; 0.12 µM)	normalised growth rate inhibition (SKBR3; 0.37 µM)	normalised growth rate inhibition (SKBR3; 1.11 µM)	normalised growth rate inhibition (SKBR3; 3.33 µM)	normalised growth rate inhibition (SKBR3; 10 µM)	normalised growth rate inhibition (MCF7; 0.04 µM)	normalised growth rate inhibition (MCF7; 0.12 µM)	normalised growth rate inhibition (MCF7; 0.37 µM)	normalised growth rate inhibition (MCF7; 1.11 µM)	normalised growth rate inhibition (MCF7; 3.33 µM)	normalised growth rate inhibition (MCF7; 10 µM)	normalised growth rate inhibition (MDAMB231; 0.04 µM)	normalised growth rate inhibition (MDAMB231; 0.12 µM)	normalised growth rate inhibition (MDAMB231; 0.37 µM)	normalised growth rate inhibition (MDAMB231; 1.11 µM)	normalised growth rate inhibition (MDAMB231; 3.33 µM)	normalised growth rate inhibition (MDAMB231; 10 µM)	normalised growth rate inhibition (HS578T; 0.04 µM)	normalised growth rate inhibition (HS578T; 0.12 µM)	normalised growth rate inhibition (HS578T; 0.37 µM)	normalised growth rate inhibition (HS578T; 1.11 µM)	normalised growth rate inhibition (HS578T; 3.33 µM)	normalised growth rate inhibition (HS578T; 10 µM)	normalised growth rate inhibition (MCF10A; 0.04 µM)	normalised growth rate inhibition (MCF10A; 0.12 µM)	normalised growth rate inhibition (MCF10A; 0.37 µM)	normalised growth rate inhibition (MCF10A; 1.11 µM)	normalised growth rate inhibition (MCF10A; 3.33 µM)	normalised growth rate inhibition (MCF10A; 10 µM)
Cc1cnc(-c2cnc(NCCNc3ccc(C#N)cn3)nc2-c2ccc(Cl)cc2Cl)[nH]1	0.915 ± 0.11	0.932 ± 0.082	0.959 ± 0.087	1 ± 0.093	1.01 ± 0.069	0.875 ± 0.16	0.731 ± 0.12	0.725 ± 0.17	0.786 ± 0.16	0.749 ± 0.17	0.753 ± 0.17	0.465 ± 0.2	0.844 ± 0.082	0.786 ± 0.085	0.776 ± 0.095	0.586 ± 0.16	0.585 ± 0.1	0.222 ± 0.061	0.895 ± 0.041	0.823 ± 0.039	0.831 ± 0.021	0.827 ± 0.061	0.831 ± 0.024	0.762 ± 0.035	0.97 ± 0.014	0.9636 ± 0.0048	0.962 ± 0.018	0.911 ± 0.059	0.907 ± 0.018	0.525 ± 0.14	1.01 ± 0.032	1.01 ± 0.041	0.997 ± 0.07	0.952 ± 0.12	0.9 ± 0.12	0.799 ± 0.13
CC(=O)Nc1nc(C)c(-c2ccc(Cl)c(S(=O)(=O)NCCO)c2)s1	1.024 ± 0.0077	1.02 ± 0.03	1.05 ± 0.034	0.973 ± 0.068	0.746 ± 0.033	0.0954 ± 0.044	1.09 ± 0.03	1.09 ± 0.045	1.01 ± 0.094	0.916 ± 0.12	0.597 ± 0.037	0.00524 ± 0.12	1.08 ± 0.094	1.03 ± 0.14	0.994 ± 0.22	0.88 ± 0.28	0.441 ± 0.11	0.0722 ± 0.078	1.01 ± 0.055	1.01 ± 0.061	0.999 ± 0.1	0.919 ± 0.061	0.78 ± 0.036	0.272 ± 0.021	1.013 ± 0.0069	1.01 ± 0.02	0.99 ± 0.056	0.929 ± 0.093	0.585 ± 0.16	0.162 ± 0.19	0.9973 ± 0.0055	0.995 ± 0.02	0.993 ± 0.029	0.959 ± 0.026	0.831 ± 0.094	0.502 ± 0.077
C[C@]1(O)C[C@@H](c2nc(-c3ccc4ccc(-c5ccccc5)nc4c3)c3c(N)nccn32)C1 [linsitinib]	0.841 ± 0.032	0.9 ± 0.032	0.949 ± 0.07	0.924 ± 0.054	0.896 ± 0.05	0.797 ± 0.051	0.657 ± 0.19	0.765 ± 0.11	0.806 ± 0.067	0.739 ± 0.072	0.678 ± 0.064	0.538 ± 0.085	0.721 ± 0.014	0.749 ± 0.12	0.555 ± 0.19	0.449 ± 0.14	0.383 ± 0.091	0.271 ± 0.089	0.791 ± 0.048	0.843 ± 0.067	0.861 ± 0.085	0.862 ± 0.068	0.838 ± 0.081	0.697 ± 0.099	0.975 ± 0.034	0.979 ± 0.024	0.93 ± 0.019	0.972 ± 0.048	0.963 ± 0.021	0.831 ± 0.072	0.956 ± 0.055	0.911 ± 0.081	0.824 ± 0.16	0.783 ± 0.18	0.731 ± 0.2	0.626 ± 0.26
Nc1cc(C(F)(F)F)c(-c2cc(N3CCOCC3)nc(N3CCOCC3)n2)cn1 [buparlisib]	1.01 ± 0.029	0.868 ± 0.1	0.501 ± 0.11	0.0131 ± 0.038	-0.261 ± 0.11	-0.346 ± 0.12	0.917 ± 0.09	0.651 ± 0.1	0.145 ± 0.056	-0.203 ± 0.16	-0.281 ± 0.14	-0.332 ± 0.13	0.759 ± 0.25	0.475 ± 0.18	0.148 ± 0.069	-0.113 ± 0.032	-0.188 ± 0.0036	-0.189 ± 0.021	1.05 ± 0.063	0.978 ± 0.027	0.844 ± 0.04	0.487 ± 0.062	0.0994 ± 0.052	-0.255 ± 0.12	0.955 ± 0.025	0.845 ± 0.028	0.679 ± 0.039	0.142 ± 0.16	-0.17 ± 0.099	-0.231 ± 0.091	1 ± 0.012	0.956 ± 0.044	0.857 ± 0.11	0.487 ± 0.23	0.0221 ± 0.089	-0.181 ± 0.12
C#Cc1cccc(Nc2ncnc3cc(OCCOC)c(OCCOC)cc23)c1 [erlotinib]	0.861 ± 0.025	0.879 ± 0.049	0.902 ± 0.068	0.834 ± 0.032	0.856 ± 0.049	0.547 ± 0.057	0.756 ± 0.077	0.885 ± 0.06	0.946 ± 0.085	0.911 ± 0.072	0.868 ± 0.08	0.165 ± 0.12	0.858 ± 0.069	0.899 ± 0.074	1.02 ± 0.024	1.06 ± 0.047	1.04 ± 0.04	0.927 ± 0.074	0.9 ± 0.058	0.937 ± 0.032	0.953 ± 0.035	0.962 ± 0.036	0.969 ± 0.016	0.641 ± 0.069	0.973 ± 0.015	0.965 ± 0.023	0.957 ± 0.012	0.945 ± 0.019	0.918 ± 0.016	0.586 ± 0.073	0.973 ± 0.013	0.829 ± 0.14	0.432 ± 0.17	0.107 ± 0.053	0.132 ± 0.065	0.136 ± 0.036
CNC(=O)c1ccc(Nc2cc(Nc3ccccc3S(=O)(=O)C(C)C)c3cc[nH]c3n2)nc1 [HG-5-113-01]	0.953 ± 0.041	0.8835 ± 0.0077	0.785 ± 0.069	0.601 ± 0.057	0.295 ± 0.051	-0.158 ± 0.11	0.875 ± 0.062	0.798 ± 0.16	0.514 ± 0.3	0.0629 ± 0.15	-0.121 ± 0.069	-0.148 ± 0.12	0.866 ± 0.069	0.718 ± 0.18	0.399 ± 0.21	0.163 ± 0.11	0.064 ± 0.018	-0.222 ± 0.1	0.969 ± 0.058	0.888 ± 0.068	0.705 ± 0.12	0.35 ± 0.19	0.123 ± 0.089	-0.0611 ± 0.15	0.9393 ± 0.0065	0.9 ± 0.013	0.77 ± 0.043	0.443 ± 0.17	0.109 ± 0.13	-0.0329 ± 0.066	0.968 ± 0.013	0.92 ± 0.036	0.851 ± 0.034	0.713 ± 0.031	0.312 ± 0.16	-0.0419 ± 0.062
C[C@@H](Oc1cc(-c2cnn(C3CCNCC3)c2)cnc1N)c1c(Cl)ccc(F)c1Cl [crizotinib]	0.805 ± 0.04	0.91 ± 0.024	0.823 ± 0.015	0.742 ± 0.03	0.391 ± 0.17	-0.0468 ± 0.072	0.687 ± 0.14	0.808 ± 0.096	0.753 ± 0.15	0.629 ± 0.15	0.342 ± 0.14	-0.181 ± 0.092	0.762 ± 0.07	0.748 ± 0.078	0.618 ± 0.12	0.351 ± 0.17	0.0468 ± 0.047	-0.174 ± 0.065	0.831 ± 0.13	0.885 ± 0.079	0.778 ± 0.096	0.509 ± 0.2	0.175 ± 0.12	-0.0131 ± 0.13	0.976 ± 0.034	0.965 ± 0.042	0.903 ± 0.014	0.781 ± 0.12	0.367 ± 0.2	0.0436 ± 0.099	0.988 ± 0.021	0.964 ± 0.032	0.934 ± 0.022	0.906 ± 0.015	0.833 ± 0.028	0.094 ± 0.017
N#CCNC(=O)c1ccc(-c2ccnc(Nc3ccc(N4CCOCC4)cc3)n2)cc1 [CYT387]	0.926 ± 0.072	0.871 ± 0.038	0.837 ± 0.083	0.748 ± 0.046	0.576 ± 0.073	0.0633 ± 0.1	0.841 ± 0.15	0.8 ± 0.16	0.789 ± 0.12	0.687 ± 0.12	0.509 ± 0.11	0.0674 ± 0.037	0.912 ± 0.024	0.896 ± 0.098	0.83 ± 0.092	0.628 ± 0.083	0.332 ± 0.2	0.0654 ± 0.039	0.859 ± 0.059	0.777 ± 0.053	0.678 ± 0.087	0.527 ± 0.18	0.36 ± 0.28	-0.112 ± 0.2	0.931 ± 0.031	0.851 ± 0.022	0.762 ± 0.024	0.638 ± 0.043	0.447 ± 0.12	0.046 ± 0.14	0.959 ± 0.023	0.924 ± 0.032	0.868 ± 0.038	0.799 ± 0.047	0.649 ± 0.1	0.185 ± 0.11
